Results as given in patent US11130756B2, “[1,2,4]Triazolo[4,3-A]pyridinyl substituted indole compounds” (BRISTOL-MYERS SQUIBB COMPANY, priority 2017, dated 2021).

How the values were obtained:
Type in all cases: cell-based
human TLR7 = molecular target: T1, human TLR7 (Homo sapiens, UniProt Q9NYK1); test: TLR7 inhibition reporter assay (HEK-Blue, SEAP); settings: HEK-Blue cells overexpressing human TLR7, gardiquimod 7.5 μM, 22 hour incubation
T1 construct: host or cells: HEK-Blue cells
T1 sequence (Q9NYK1 27-1049): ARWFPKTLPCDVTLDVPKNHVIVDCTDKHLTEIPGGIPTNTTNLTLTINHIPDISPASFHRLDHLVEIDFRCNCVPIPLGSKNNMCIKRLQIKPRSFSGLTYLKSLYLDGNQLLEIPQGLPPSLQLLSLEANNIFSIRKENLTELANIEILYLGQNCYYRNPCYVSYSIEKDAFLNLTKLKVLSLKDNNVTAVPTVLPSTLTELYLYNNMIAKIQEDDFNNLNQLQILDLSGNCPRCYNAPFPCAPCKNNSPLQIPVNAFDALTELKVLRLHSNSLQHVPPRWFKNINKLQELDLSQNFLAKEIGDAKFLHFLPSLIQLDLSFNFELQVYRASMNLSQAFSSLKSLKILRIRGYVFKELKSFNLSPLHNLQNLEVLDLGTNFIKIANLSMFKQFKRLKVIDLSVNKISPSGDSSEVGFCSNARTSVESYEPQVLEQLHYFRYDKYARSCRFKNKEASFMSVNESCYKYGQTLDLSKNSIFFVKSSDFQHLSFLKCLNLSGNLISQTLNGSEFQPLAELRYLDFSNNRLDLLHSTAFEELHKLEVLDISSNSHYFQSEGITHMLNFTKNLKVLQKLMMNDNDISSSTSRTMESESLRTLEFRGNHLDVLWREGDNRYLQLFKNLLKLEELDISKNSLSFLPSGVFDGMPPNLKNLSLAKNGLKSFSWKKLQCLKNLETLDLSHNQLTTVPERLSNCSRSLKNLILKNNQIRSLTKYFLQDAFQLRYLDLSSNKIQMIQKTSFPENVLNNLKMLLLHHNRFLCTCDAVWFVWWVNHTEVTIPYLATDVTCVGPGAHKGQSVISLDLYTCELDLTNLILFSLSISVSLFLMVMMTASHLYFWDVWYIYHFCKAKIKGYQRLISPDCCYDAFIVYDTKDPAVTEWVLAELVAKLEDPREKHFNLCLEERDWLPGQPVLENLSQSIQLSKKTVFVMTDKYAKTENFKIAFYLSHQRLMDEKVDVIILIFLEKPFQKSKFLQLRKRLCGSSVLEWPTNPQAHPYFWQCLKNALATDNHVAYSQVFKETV
Outline: (§1)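 Human TLR7/8/9 HEK-Blue reporter lines; dose range 0.05 nM–50 μM; 30 min RT preincubation; stimulus gardiquimod 7.5 μM / R848 15.9 μM / ODN2006 5 nM respectively; 22 h, 37 °C; SEAP detected colorimetrically.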

human TLR8 = molecular target: T2, human TLR8 (Homo sapiens, UniProt Q9NR97); test: TLR8 inhibition reporter assay (HEK-Blue, SEAP); settings: HEK-Blue cells overexpressing human TLR8, R848 15.9 μM, 22 hour incubation
T2 construct: host or cells: HEK-Blue cells
T2 sequence (Q9NR97 27-1041): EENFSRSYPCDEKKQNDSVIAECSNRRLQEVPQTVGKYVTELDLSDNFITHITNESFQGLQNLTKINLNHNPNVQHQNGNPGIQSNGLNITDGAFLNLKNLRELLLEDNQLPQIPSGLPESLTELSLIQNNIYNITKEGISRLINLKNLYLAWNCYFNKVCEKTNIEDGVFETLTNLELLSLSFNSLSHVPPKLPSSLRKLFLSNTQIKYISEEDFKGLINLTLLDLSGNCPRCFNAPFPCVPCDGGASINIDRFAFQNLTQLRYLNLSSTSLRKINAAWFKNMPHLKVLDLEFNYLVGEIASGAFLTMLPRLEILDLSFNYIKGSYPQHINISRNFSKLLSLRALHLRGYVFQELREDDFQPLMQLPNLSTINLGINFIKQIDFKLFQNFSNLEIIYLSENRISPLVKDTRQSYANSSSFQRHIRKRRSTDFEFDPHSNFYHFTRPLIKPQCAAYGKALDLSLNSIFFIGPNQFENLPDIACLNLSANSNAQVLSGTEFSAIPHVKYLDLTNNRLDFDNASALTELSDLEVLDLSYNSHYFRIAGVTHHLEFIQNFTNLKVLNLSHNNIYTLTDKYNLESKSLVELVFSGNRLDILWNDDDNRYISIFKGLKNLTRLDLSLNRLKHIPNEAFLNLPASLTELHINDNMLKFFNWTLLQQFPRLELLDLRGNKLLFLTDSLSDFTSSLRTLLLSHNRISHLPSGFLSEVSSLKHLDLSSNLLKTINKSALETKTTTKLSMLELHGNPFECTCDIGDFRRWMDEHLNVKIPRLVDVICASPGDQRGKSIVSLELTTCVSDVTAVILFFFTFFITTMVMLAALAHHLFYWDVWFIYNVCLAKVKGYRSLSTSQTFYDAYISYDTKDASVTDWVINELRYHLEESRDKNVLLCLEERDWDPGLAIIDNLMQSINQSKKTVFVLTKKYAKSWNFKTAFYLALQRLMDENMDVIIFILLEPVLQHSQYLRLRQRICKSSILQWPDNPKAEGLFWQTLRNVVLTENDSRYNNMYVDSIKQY
Outline: as §1

human TLR9 = molecular target: T3, human TLR9 (Homo sapiens, UniProt Q9NR96); test: TLR9 inhibition reporter assay (HEK-Blue, SEAP); settings: HEK-Blue cells overexpressing human TLR9, ODN2006 5 nM, 22 hour incubation
T3 construct: host or cells: HEK-Blue cells
T3 sequence (Q9NR96 26-1032): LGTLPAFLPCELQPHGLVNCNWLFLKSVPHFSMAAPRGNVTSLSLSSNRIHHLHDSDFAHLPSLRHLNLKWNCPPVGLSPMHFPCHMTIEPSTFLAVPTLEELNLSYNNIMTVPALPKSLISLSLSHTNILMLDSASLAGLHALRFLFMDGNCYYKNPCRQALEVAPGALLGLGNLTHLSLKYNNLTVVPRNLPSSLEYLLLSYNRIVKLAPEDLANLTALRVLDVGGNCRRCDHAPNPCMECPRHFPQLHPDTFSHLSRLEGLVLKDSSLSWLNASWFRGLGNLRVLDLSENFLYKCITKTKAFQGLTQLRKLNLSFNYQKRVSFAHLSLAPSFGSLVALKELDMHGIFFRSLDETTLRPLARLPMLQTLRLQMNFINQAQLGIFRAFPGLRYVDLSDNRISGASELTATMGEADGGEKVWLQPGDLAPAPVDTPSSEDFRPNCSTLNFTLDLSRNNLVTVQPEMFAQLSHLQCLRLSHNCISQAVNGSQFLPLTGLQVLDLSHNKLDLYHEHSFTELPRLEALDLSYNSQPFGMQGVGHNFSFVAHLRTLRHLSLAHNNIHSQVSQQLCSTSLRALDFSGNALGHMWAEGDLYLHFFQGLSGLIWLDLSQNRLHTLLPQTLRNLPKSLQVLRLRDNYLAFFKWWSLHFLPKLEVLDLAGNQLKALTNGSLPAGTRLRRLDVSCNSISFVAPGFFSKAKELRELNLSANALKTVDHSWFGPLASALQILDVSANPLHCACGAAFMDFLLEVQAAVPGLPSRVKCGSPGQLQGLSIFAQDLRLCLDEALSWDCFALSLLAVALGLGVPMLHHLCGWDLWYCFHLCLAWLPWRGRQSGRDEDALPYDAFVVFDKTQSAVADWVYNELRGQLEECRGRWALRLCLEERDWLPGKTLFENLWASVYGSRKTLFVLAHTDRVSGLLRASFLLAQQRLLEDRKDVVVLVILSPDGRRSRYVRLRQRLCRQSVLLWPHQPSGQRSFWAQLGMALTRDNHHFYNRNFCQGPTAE
Outline: as §1

| SMILES | IC50 (human TLR7) [nM] | IC50 (human TLR8) [nM] | IC50 (human TLR9) [nM] |
| --- | --- | --- | --- |
| Cc1c(-c2[nH]c3ccc(C4CCNCC4)cc3c2C(C)C)ccc2nncn12 [Example 5, 6-(3-isopropyl-5-(piperidin-4-yl)-1H-indol-2-yl)-5-methyl-[1,2,4]triazolo[4,3-a]pyridine] | 154 | 133 | 1240 |
| Cc1c(-c2[nH]c3ccc(C4CCN(CC(=O)N(C)C)CC4)cc3c2C(C)C)ccc2nncn12 [Example 25, 2-(4-(3-isopropyl-2-(5-methyl-[1,2,4]triazolo[4,3-a]pyridin-6-yl)-1H-indol-5-yl)piperidin-1-yl)-N,N-dimethylacetamide] | 49.5 | 28.5 | 3320 |
| CC(C)c1c(-c2ccc3nncn3c2)[nH]c2ccc(C3CCN(C(=O)CN(C)C)CC3)cc12 [Example 105, 1-(4-(2-([1,2,4]triazolo[4,3-a]pyridin-6-yl)-3-isopropyl-1H-indol-5-yl)piperidin-1-yl)-2-(dimethylamino)ethan-1-one] | 5.9 | 134 | 188 |
| Cc1c(-c2[nH]c3ccc(C4CC(C)N(C5COC5)C(C)C4)cc3c2C(C)C)cn2cnnc2c1C (stereo not drawn) [Example 115, 6-(5-(2,6-dimethyl-1-(oxetan-3-yl)piperidin-4-yl)-3-isopropyl-1H-indol-2-yl)-7,8-dimethyl-[1,2,4]triazolo[4,3-a]pyridine] | 5.6 | 29.7 | 14600 |
| Cc1cc2nncn2cc1-c1[nH]c2ccc(C3CCNCC3)cc2c1C(C)C [Example 4, 6-(3-isopropyl-5-(piperidin-4-yl)-1H-indol-2-yl)-7-methyl-[1,2,4]triazolo[4,3-a]pyridine] | 56.7 | 2340 | 2430 |
| Cc1c(-c2[nH]c3ccc(C4C[C@H]5CC[C@@H](C4)N5CC(=O)N(C)C)cc3c2C(C)C)cn2cnnc2c1C (single isomer, unassigned) [Example 119] | 12.9 | 103 | 1020 |
| Cc1c(-c2[nH]c3ccc(C4CCN(C(=O)CN(C)C)CC4)cc3c2C(C)C)ccc2nncn12 [Example 108, 2-(dimethylamino)-1-(4-(3-isopropyl-2-(5-methyl-[1,2,4]triazolo[4,3-a]pyridin-6-yl)-1H-indol-5-yl)piperidin-1-yl)ethan-1-one] | 78.7 | 30.4 | 216 |

More lines, now with the values ahead:

| IC50 (human TLR7) [nM] | IC50 (human TLR8) [nM] | IC50 (human TLR9) [nM] | SMILES |
| --- | --- | --- | --- |
| 2.5 | 10.8 | 2260 | Cc1c(-c2[nH]c3ccc(C4CCN(C5CCOCC5)CC4)cc3c2C(C)C)cn2cnnc2c1Cl [Example 81, 8-chloro-6-(3-isopropyl-5-(1-(tetrahydro-2H-pyran-4-yl)piperidin-4-yl)-1H-indol-2-yl)-7-methyl-[1,2,4]triazolo[4,3-a]pyridine] |
| 83.5 | 10.8 | 1070 | Cc1c(-c2[nH]c3ccc(C4CCN(C5CCOCC5)CC4)cc3c2C(C)C)ccc2nncn12 [Example 70, 6-(3-isopropyl-5-(1-(tetrahydro-2H-pyran-4-yl)piperidin-4-yl)-1H-indol-2-yl)-5-methyl-[1,2,4]triazolo[4,3-a]pyridine] |
| 55.9 | 3.6 | 4190 | Cc1cc(-c2[nH]c3ccc(C4CCN(C5CCOCC5)CC4)cc3c2C(C)C)c(C)n2cnnc12 [Example 77, 6-(3-isopropyl-5-(1-(tetrahydro-2H-pyran-4-yl)piperidin-4-yl)-1H-indol-2-yl)-5,8-dimethyl-[1,2,4]triazolo[4,3-a]pyridine] |
| 20.4 | 1.9 | 562 | Cc1cc(-c2[nH]c3ccc(C4CCN(C5CCOCC5)CC4)cc3c2C(C)C)cn2c(C)nnc12 [Example 73, 6-(3-isopropyl-5-(1-(tetrahydro-2H-pyran-4-yl)piperidin-4-yl)-1H-indol-2-yl)-3,8-dimethyl-[1,2,4]triazolo [4,3-a]pyridine] |
| 0.8 | 0.9 | 1750 | Cc1cc(-c2[nH]c3ccc(C4CCN(CC(C)(C)O)CC4)cc3c2C(C)C)cn2cnnc12 [Example 58, 1-(4-(3-isopropyl-2-(8-methyl-[1,2,4]triazolo[4,3-a]pyridin-6-yl)-1H-indol-5-yl)piperidin-1-yl)-2-methylpropan-2-ol] |
| 1.9 | 9.5 | 4240 | Cc1c(-c2[nH]c3ccc(C4CCN(CC(=O)N(C)C)CC4)cc3c2C(C)C)cn2cnnc2c1C [Example 39, 2-(4-(2-(7,8-dimethyl-[1,2,4]triazolo [4,3-a]pyridin-6-yl)-3-isopropyl-1H-indol-5-yl)piperidin-1-yl)-N,N-dimethylacetamide] |
| 3.9 | 10.1 | 4670 | Cc1cc(-c2[nH]c3ccc(C4CCN(Cc5ncn(C)n5)CC4)cc3c2C(C)C)cn2cnnc12 [Example 21, 6-(3-isopropyl-5-(1-((1-methyl-1H-1,2,4-triazol-3-yl)methyl)piperidin-4-yl)-1H-indol-2-yl)-8-methyl-[1,2,4]triazolo[4,3-a]pyridine] |
